15 compounds from patent US20100105652A1, “PURINES AS CYSTEINE PROTEASE INHIBITORS” (Glaxo Group Limited, priority 2007, published 2010) can be followed below.

One assay concerns the target T1, Falcipain-2 (Plasmodium falciparum, UniProt Q8I6U4).
T1 sequence (Q8I6U4 244-484): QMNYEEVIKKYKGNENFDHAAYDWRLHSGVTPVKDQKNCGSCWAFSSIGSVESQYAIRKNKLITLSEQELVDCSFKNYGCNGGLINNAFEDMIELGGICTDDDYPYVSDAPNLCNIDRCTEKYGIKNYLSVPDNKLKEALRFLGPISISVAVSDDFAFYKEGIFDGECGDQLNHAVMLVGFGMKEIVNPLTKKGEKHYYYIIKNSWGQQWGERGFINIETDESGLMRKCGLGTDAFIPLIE
Description: falcipain-2 enzymatic assay (fluorogenic substrate H-D-VLR-AFC, endpoint). The class given is biochemical. Conditions: parasitic recombinant enzyme, pH 5.5, quenched after 60 minutes. The protocol:
(§1) 1) Determination of Falcipain-2, Falcipain-3, Vivapain-2, and Cathepsin S Proteolytic Catalytic Activity
(§2) Assays for Falcipain-2, Falcipain-3, and Vivapain-2 are carried out with parasitic recombinant enzymes. Cathepsins S is carried out with human recombinant enzymes. Standard assay conditions for the determination of kinetic constants used a fluorogenic peptide substrate, typically H-D-VLR-AFC (Falcipain-2, Falcipain-3, Vivapain-2) or KQKLR-AMC (Cathepsin S) and are determined in 100 mM sodium acetate, pH 5.5, containing 10 mM DTT and 0.5 mM CHAPS (Falcipain-2, Falcipain-3, Vivapain-2), or 50 mM MES, pH 6.5, containing 0.5 mM CHAPS, 10 mM L-CYS, 5 mM EDTA (Cathepsin S). Stock substrate solutions are prepared at 20 mM in DMSO. The activity assays contained 30 uM substrate (Falcipain-2, Falcipain-3, Vivapain-2), and 30 uM substrate (Cathepsin S). All assays contained 1% DMSO. […] All assays are conducted at ambient temperature as end point assays being quenched after 60 minutes with the exception of Cathepsin S at 90 minutes, with 16.6 uM E-64 in 1% DMSO. Product formation (AFC or AMC) is determined from fluorescence (excitation at 405 nm; emission at 530 nm, AFC, or excitation at 360 nm; emission at 460 nm, AMC) monitored with a LJL Aquest (Molecular Devices) fluorescent plate reader. In the case of kinetic reads (used in mechanism of action studies), the reaction is not quenched but is read in the plate reader every 3 minutes for approximately 90 minutes. In addition, the mechanism of action studies for Falcipain-2 utilize Z-LR-AMC as the substrate. Product formation is determined from the fluorescence of AMC, measured with a LJL Acquest (Molecular Devices) fluorescent plate reader (excitation at 360 nm; emission at 460 nm).
(§3) Potential inhibitors are evaluated using the quenched read (endpoint) method. Assays are carried out in the presence of variable concentrations of test compound. Reactions are initiated by addition of enzyme and substrate to wells containing inhibitor stamped in 100% DMSO. For endpoint assays, the reaction is quenched with the addition of E64. Dose response data is fit to an IC50 curve with preset fitting tools according to equation 1:
(§4) y=a+(b−a)/(1+(10^X/10^C)^d) (1)
(§5) where y is the response at a particular inhibitor concentration x, a is the minimum response value, b is the maximum response value, c is the IC50, and d is the slope of the IC50 curve. Assuming the compound is a competitive inhibitor, the apparent KI can be calculated from IC50, as shown in equation 2: […]

In the next assay the target is T2, Falcipain-3 (Plasmodium falciparum, UniProt Q8IIL0).
T2 sequence (Q8IIL0 243-492): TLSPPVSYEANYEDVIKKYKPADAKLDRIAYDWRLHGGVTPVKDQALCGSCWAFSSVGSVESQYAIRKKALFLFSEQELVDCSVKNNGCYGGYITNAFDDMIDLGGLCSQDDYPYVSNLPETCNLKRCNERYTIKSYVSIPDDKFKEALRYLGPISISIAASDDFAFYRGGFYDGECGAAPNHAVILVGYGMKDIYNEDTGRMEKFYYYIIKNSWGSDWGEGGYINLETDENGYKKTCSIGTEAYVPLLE
Description: falcipain-3 enzymatic assay (fluorogenic substrate H-D-VLR-AFC, endpoint). The format is biochemical. Conditions: parasitic recombinant enzyme, pH 5.5, quenched after 60 minutes. The protocol:
as §1, §2, §3, §4, §5

Assay [1] deals with Plasmodium falciparum parasite. The experiment in a line: whole cell activity against the Plasmodium falciparum parasite. The class given is cell-based. The text has this:
Equation 7 describes the apparent KI for competitive compounds and was substituted into equations 5 and 6 to generate the relevant binding constants from the fitting routine. In addition, the initial and final velocities were fit to equation 3 to further define the binding mechanism and potency. A complete discussion of this kinetic treatment has been fully described (Morrison et al., Adv. Enzymol. Relat. Areas Mol. Biol., 1988, 61, 201). 2) Determination of Whole Cell Activity Against the Plasmodium falciparum Parasite Compounds can be evaluated for whole cell activity against the Plasmodium falciparum parasite according to the procedure described in Sijwali S, and Rosenthal P. J., (2004) Proceedings of the National Academy of Sciences of the United States of America (PNAS) 101(13), 4384-4389 (see in particular “Measurement of Parasite Growth rates and Inhibitor Sensitivity” on page 4385); IC50 values can be calculated as described in Singh A. and Rosenthal P. J., (2001) Antimicrobial Agents and Chemotherapy 45(3), 949-951 (see in particular page 950, first column); synchronised parasites can be prepared as described in Divo A. A. et al., (1985) Protozool. 32, 59-64.

pIC50: −log10 of the molar value. Structures can show the parent of a compound that is named as a salt.

In the case of `CN1CCN(c2cccc(C(=O)NN(c3nc(C#N)nc4c3ncn4C)C3CCCC3)c2)CC1` [Example 33, N′-(2-cyano-9-methyl-9H-purin-6-yl)-N′-cyclopentyl-3-(4-methyl-1-piperazinyl)benzohydrazide trifluoroacetate], the figures for the pIC50 (on Falcipain-2; at Falcipain-3; in assay [1]) were 8.60 to 9.00, 6.82 to 7.82 and 6.82 to 7.82, respectively.

With `CN1CCN(C(=O)C2CCN(Cc3ccc(C(=O)NN(c4nc(C#N)nc5c4ncn5C)C4CCCC4)cc3)CC2)CC1` [Example 6, N′-(2-cyano-9-methyl-9H-purin-6-yl)-N′-cyclopentyl-4-({4-[(4-methyl-1-piperazinyl)carbonyl]-1-piperidinyl}methyl)benzohydrazide trifluoroacetate], the pIC50 at Falcipain-2 is 7.82 to 8.60; at Falcipain-3, 6.60 to 6.82; in assay [1], 6.82 to 7.82.

`CN(C)CCCn1cnc2c(N(NC(=O)OC(C)(C)C)C3CCCC3)nc(C#N)nc21` [Example 15, 1,1-dimethylethyl 2-{2-cyano-9-[3-(dimethylamino)propyl]-9H-purin-6-yl}-2-cyclopentylhydrazinecarboxylate trifluoroacetate]: the pIC50 on Falcipain-2 was 7.82 to 8.60; at Falcipain-3, 6.82 to 7.82; in assay [1], 6.82 to 7.82.

Take `CN(C)CCCn1cnc2c(N(NC(=O)c3cccc(N4CCN(C)CC4)c3)C3CCCC3)nc(C#N)nc21` [Example 37, N′-{2-cyano-9-[3-(dimethylamino)propyl]-9H-purin-6-yl}-N′-cyclo pentyl-3-4-methyl-1-piperazinyl)benzohydrazide trifluoroacetate]: the pIC50 on Falcipain-2 was 8.60 to 9.00; at Falcipain-3, 6.60 to 6.82; in assay [1], 7.82 to 8.60.

Take `CN1CCN(Cc2ccc(C(=O)NN(c3nc(C#N)nc4c3ncn4C)C3CCCC3)cc2)CC1` [Example 47, N′-(2-cyano-9-methyl-9H-purin-6-yl)-N′-cyclopentyl-4-[(4-methyl-1-piperazinyl)methyl]benzohydrazide trifluoroacetate]: the values for the pIC50 (at Falcipain-2; on Falcipain-3; in assay [1]) were 7.82 to 8.60, 6.40 to 6.60 and 6.60 to 6.82, respectively.

With `CN(CCn1cnc2c(N(NC(=O)OC(C)(C)C)C3CCCC3)nc(C#N)nc21)C(C)(C)C` [Example 43, 1,1-dimethylethyl 2-(2-cyano-9-{2-[(1,1-dimethylethyl)(methyl)amino]ethyl}-9H-purin-6-yl)-2-cyclopentylhydrazinecarboxylate trifluoroacetate], the pIC50 is 7.82 to 8.60 on Falcipain-2, 6.82 to 7.82 on Falcipain-3 and 6.40 to 6.60 in assay [1].

For `CC(C)(C)OC(=O)NN(CC1CCCC1)c1nc(C#N)nc2c1ncn2CCN1C(=O)c2ccccc2C1=O` [Example 21, 1,1-dimethylethyl-2-{2-cyano-9-[2-(1,3-dioxo-1,3-dihydro-2H-isoindol-2-yl)ethyl]-9H-purin-6-yl}-2-(cyclopentylmethyl)hydrazinecarboxylate], the pIC50 at Falcipain-2 was 6.82 to 7.82; at Falcipain-3 it was 6.40 to 6.60; in assay [1], 6.40 to 6.60.

Take `CN(C)CCCn1cnc2c(N(NC(=O)c3cccc(-c4ccc(CN5CCN(C)CC5)cc4)n3)C3CCCCC3)nc(C#N)nc21` [Example 46, N′-{2-cyano-9-[3-(dimethylamino)propyl]-9H-purin-6-yl}-N′-cyclo hexyl-6-{4-[(4-methyl-1-piperazinyl)methyl]phenyl}-2-pyridinecarbohydrazide trifluoroacetate]: the pIC50 was 7.82 to 8.60 at Falcipain-2, 6.82 to 7.82 on Falcipain-3 and 6.82 to 7.82 in assay [1].

As to `CN1CCN(C(=O)n2cnc3c(N(NC(=O)OC(C)(C)C)C4CCCC4)nc(C#N)nc32)CC1` [Example 29, 1,1-dimethylethyl 2-{2-cyano-9-[(4-methyl-1-piperazinyl)carbonyl]-9H-purin-6-yl}-2-cyclopentylhydrazinecarboxylate], the pIC50 was ≥ 9.00 on Falcipain-2, 7.82 to 8.60 at Falcipain-3 and 6.00 to 6.40 in assay [1].

`CN1CCN(C2CCN(Cc3ccc(C(=O)NN(c4nc(C#N)nc5c4ncn5C)C4CCCC4)cc3)CC2)CC1` [Example 4, N′-(2-cyano-9-methyl-9H-purin-6-yl)-N′-cyclopentyl-4-({[4-(4-methyl-1-piperazinyl)-1-piperidinyl]methyl}benzohydrazide trifluoroacetate]: the results for the pIC50 (at Falcipain-2; on Falcipain-3; in assay [1]) were 7.82 to 8.60, 6.60 to 6.82 and 7.82 to 8.60, respectively.

On to `CN1CCN(C2CCN(Cc3ccc(C(=O)NN(CC4CCCC4)c4nc(C#N)nc5c4ncn5C)cc3)CC2)CC1` [Example 1, N′-(2-cyano-9-methyl-9H-purin-6-yl)-N′-(cyclopentylmethyl)-4-({[4-(4-methyl-1-piperazinyl)-1-piperidinyl]methyl}benzohydrazide trifluoroacetate], for which the pIC50 at Falcipain-2 is 7.82 to 8.60; on Falcipain-3, 6.82 to 7.82; in assay [1] it was 6.82 to 7.82.

In the case of `CN(C)CCn1cnc2c(N(NC(=O)c3cccc(-c4ccc(CN5CCN(C)CC5)cc4)n3)C3CCCCC3)nc(C#N)nc21` [Example 45, N′-{2-cyano-9-[2-(dimethylamino)ethyl]-9H-purin-6-yl}-N′-cyclohexyl-6-{4-[(4-methyl-1-piperazinyl)methyl]phenyl}-2-pyridinecarbohydrazide trifluoroacetate], the pIC50 on Falcipain-2 was 7.82 to 8.60; on Falcipain-3 it was 6.82 to 7.82; in assay [1], 6.82 to 7.82.

Consider `CN(C)CCCn1cnc2c(N(NC(=O)c3ccc(CN4CCN(C)CC4)cc3)C3CCCCC3)nc(C#N)nc21` [Example 31, N′-{2-cyano-9-[3-(dimethylamino)propyl]-9H-purin-6-yl}-N′-cyclo hexyl-4-[(4-methyl-1-piperazinyl)methyl]benzohydrazide trifluoroacetate], for which the pIC50 on Falcipain-2 was 7.82 to 8.60; at Falcipain-3, 6.82 to 7.82; in assay [1] it was 6.82 to 7.82.

On to `CN1CCN(Cc2ccc(C(=O)NN(c3nc(C#N)nc4c3ncn4C(=O)N3CCN(C)CC3)C3CCCC3)cc2)CC1` [Example 34, N′-{2-cyano-9-[(4-methyl-1-piperazinyl)carbonyl]-9H-purin-6-yl}-N′-cyclopentyl-4-[(4-methyl-1-piperazinyl)methyl]benzohydrazide trifluoroacetate], for which the pIC50 at Falcipain-2 is 8.60 to 9.00; on Falcipain-3, 6.82 to 7.82; in assay [1] it was 6.82 to 7.82.

In the case of `CN1CCCC(CN2CCN(Cc3ccc(C(=O)NN(CC4CCCC4)c4nc(C#N)nc5c4ncn5C)cc3)CC2)C1` (centres unmarked) [Example 3, N′-(2-cyano-9-methyl-9H-purin-6-yl)-N′-(cyclopentylmethyl)-4-({4-[(1-methyl-3-piperidinyl)methyl]-1-piperazinyl}methyl)benzohydrazide trifluoroacetate], the pIC50 is 7.82 to 8.60 at Falcipain-2 and 6.82 to 7.82 in assay [1].

For orientation: pIC50 means the IC50 on a negative log10 scale, so that one unit is a factor of ten.
